Measured values from US11919878B1, “9-(2-hydroxypyridin-3-yl)-10-(2-phenylethyl)-3,3,6,6-tetramethyl-3,4,6,7,9,10-hexahydroacridine1,8(2H,5H)-dione as an antimicrobial compound” (KING FAISAL UNIVERSITY, priority 2023, dated 2024).

Tests used:
Assay in all cases: Antimicrobial screening, agar dilution
Assay type in all cases: cell-based
Details in all cases: after 10, 20, 40 and 60 minutes at all dilutions 1:100, 1:200, 1:400, 1:800
[1] = tested on: Candida albicans
Experimental: (§1) The antibacterial properties of the synthesized compound compound (9-(2-hydroxypyridin-3-yl)-10-(2-phenylethyl)-3,3,6,6-tetramethyl-3,4,6,7,9,10-hexahydroacridine1,8(2H,5H)-dione) were studied by the method of agar dilution. Test solutions of each compound was prepared in concentration of 1% using dimethylformamide as a solvent then they are diluted in physiological solution to obtain the final experimental dilutions 1:100, 1:200, 1:400, 1:800. The effect of these substances are compared with furacillin in a controllable study. The testing microbes used were gram positive bacteria Staphylococcus aureus, gram negative bacteria Pseudomonas aeruginosa and Escherichia coli and Candida albicans fungus. The experiments used for this survey were meat-pentonlu agar (EPA) for cultivation of bacteria and Saburo enviromnent for the fungus. Each experiment used 1 mL of test solution on each plate […]. Two drops of emulsified with microbes feel were added. All experimental samples were taken from the agar after 10, 20, 40, 60 minutes in the environment on the basis of Patrk planted. The bacteria were cultivated at a temperature: of 37° C for 1 day and the mushroom was kept in a thermostat for […] at a temperature of 28° C. Then results were checked.

[2] = tested on: Escherichia coli
Experimental: as §1

[3] = tested on: Pseudomonas aeruginosa
Experimental: as §1

[4] = tested on: Staphylococcus aureus
Experimental: as §1

Measured: inhibition activity (in words)

CC1(C)CC(=O)C2=C(C1)N(CCc1ccccc1)C1=C(C(=O)CC(C)(C)C1)C2c1cccnc1O [9-(2-hydroxypyridin-3-yl)-10-(2-phenylethyl)-3,3,6,6-tetramethyl-3,4,6,7,9,10-hexahydroacridine1,8(2H,5H)-dione]
highest inhibition activity: [1] | [2] | [3] | [4]
